Test results published in paper PMC10687119, “Quaternary Ammonium Salts of Cationic Lipopeptides with Lysine Residues — Synthesis, Antimicrobial, Hemolytic and Cytotoxic Activities” (Probiotics and Antimicrobial Proteins, 2023).
In brackets after ≈: the same amount, converted by molar mass. Where a SMILES comes first, the peptide text is derived from it. [ ]: non-standard residue; d: D form. The star is where a group is joined. Lys(Me3) = C[N+](C)(C)CCCC[C@H](N)C(=O)O; Stearoyl = CCCCCCCCCCCCCCCCCC(=O)*; Palmitoyl = CCCCCCCCCCCCCCCC(=O)*; Myristoyl = CCCCCCCCCCCCCC(=O)*

What was measured:
P. aeruginosa ATCC 9027 = type: cell-based, Pseudomonas aeruginosa; conditions: ATCC 9027, 18 h
Protocol: (§1) The Acinetobacter baumannii ATCC BAA-1605, Enterococcus faecium ATCC 700221, Klebsiella aerogenes ATCC 13048, Klebsiella pneumoniae ATCC 700603, Pseudomonas aeruginosa ATCC 9027, Staphylococcus aureus ATCC 33591, Candida glabrata ATCC 15126 strains were acquired from the American Type Culture Collection (ATCC, Manassas, USA). All the strains were stored at −80 °C in Roti-Store cryo vials (Carl Roth GmbH, Germany) and before the tests were transferred into fresh Mueller–Hinton broth (MHB, Becton Dickinson, Poland) for bacteria or RPMI-1640 (Sigma-Aldrich, Germany) for fungi and incubated for 24 h at 37 °C. Then, the cultures were cultured on the Mueller–Hinton agar (BioMaxima, Poland) or Sabouraud dextrose agar (SDA, BioMaxima) plates, respectively, and incubated as just mentioned. For microbiological assays, a minimum of three to five well-isolated colonies of the same morphological type were carefully picked from the agar cultures. These colonies were transferred with sterile loop into fresh microbiological medium and incubated with shaking (100 rpm) at 37 °C until they reached logarithmic phase of growth. Cell densities for all assays were adjusted through spectrophotometric measurements (Multiskan GO Microplate Spectrophotometer, Thermo Fisher Scientific, Finland) at 600 and 530 nm for bacteria and fungi, respectively.
(§2) The MICs were determined by broth microdilution method according to the Clinical and Laboratory Standard Institute guidelines. For this purpose, initial inoculums of bacteria (5 × 10^5 CFU/mL) in MHB and yeasts (2 × 10^3 CFU/mL) in RPMI-1640 with 2% D-glucose were exposed to the ranging concentration of lipopeptides (1–512 μg/mL) and incubated at 37 °C for 18 h and 24 h, respectively. The experiments were conducted on 96-well microtiter polystyrene plates (Kartell, Italy). The growth was assessed visually after incubation and the MIC was assumed as the lowest peptide concentration at which a noticeable growth of microorganisms was inhibited. Benzalkonium chloride (Sigma-Aldrich, Germany) was used as reference compound. All experiments were conducted in triplicate.

[1] = system: A. baumannii ATCC BAA 1605; type: cell-based, Acinetobacter baumannii; conditions: ATCC BAA 1605, 18 h
Protocol: as §1, §2

C. glabrata ATCC 15126 = type: cell-based, Candida glabrata; conditions: ATCC 15126, 24 h
Protocol: as §1, §2

K. aerogenes ATCC 13048 = type: cell-based, Klebsiella aerogenes; conditions: ATCC 13048, 18 h
Protocol: as §1, §2

[2] = system: human red blood cells (RBCs); type: cell-based; conditions: red cells of human
Protocol: The hemolysis assay was conducted using a procedure described previously. For this purpose, human red blood cells (RBCs) isolated from K2EDTA Single Donor Human Whole blood (Innovative Research, Inc, MI, USA) were rinsed with Phosphate-buffer saline (PBS, pH 7.4±0.05, composition - KCl 2.7 mM, NaCl 140 mM, phosphate 10mM; AppliChem GmbH, Germany) by centrifugation for 10 min at 800 × g. This process was repeated 3 times and the RBCs were resuspended in PBS. Then, the stock solution of RBCs was added to the serial dilution of lipopeptides on 96-well polystyrene plates to reach a final volume of 100 μL with a 4% concentration of erythrocytes (v/v) and a concentration range of 1-512 μg/mL of tested compounds. The control wells for 0% and 100% hemolysis consisted of RBCs suspended in PBS and 1% of Triton X-100 (Sigma-Aldrich, Germany), respectively. Benzalkonium chloride (Sigma-Aldrich, Germany) was used as reference compound. Subsequently, the plates were incubated for 60 min at 37 °C and then centrifuged at 800 × g for 10 min at 4 °C (Sorvall ST […] Centrifuge, Thermo Scientific). The supernatant was carefully […] to new microtiter plates. The release of hemoglobin was monitored absorbance measurements at 540 nm (MultiskanTM GO Microplate Spectrophotometer, Thermo Scientific). All experiments were conducted in triplicate. HC50 was calculated using an ic50.tk tool.

E. faecium ATCC 700221 = type: cell-based, Enterococcus faecium; conditions: ATCC 700221, 18 h
Protocol: as §1, §2

[3] = system: human keratinocyte cell line (HaCaT); type: cell-based; conditions: 24 h
Protocol: The immortalized human keratinocyte cell line (HaCaT), obtained from CLS (Cell Line Service, Germany) was cultured in DMEM-high glucose (Dulbecco’s Modified Eagle Medium) supplemented with 10% fetal bovine serum, 2 mM L-glutamine, 100 U/mL penicillin and 100 μg/mL streptomycin (Sigma-Aldrich; Merck KGaA) at 37 °C in a humidified atmosphere with 5% CO2. Cells were trypsinized, and the medium was renewed 2–3 times per week. The cytotoxicity of compounds was assessed by colorimetric CellTilter 96® Aqueous One Solution Cell Proliferation Assay (Promega, USA), containing a tetrazolium compound according to the manufacturer’s instructions. In brief, 7 × 10^3 HaCaT cells per well were plated on 96-well plates and incubated per night to adhere to the cultured dishes. After that time, different concentrations of the tested compounds ranging from 512 to 1 μg/mL were applied to the wells. Every compound was medium-soluble at 37 °C; thus, the non-treated cells were negative control. Serial dilutions of the tested compounds were always prepared before use. Cells were incubated with drugs for 24 h, and then, 20 μL of the CellTiter 96®AqueousOne Solution Reagent was added to each well containing treated cells in 100 µl of culture medium. After 4 h of incubation at 37 °C, the absorbance at 490 nm was recorded using a microplate reader (Epoch, BioTek Instruments, USA). The quantity of formazan product as measured by the amount of 490 nm absorbance is directly proportional to the number of living cells in culture. Benzalkonium chloride (Sigma-Aldrich, Germany) was used as reference compound. At least three independent experiments with two replicates were conducted for each concentration of a compound, and the IC50 values were calculated using GraphPad Prism 8 software.

S. aureus ATCC 33591 = type: cell-based, Staphylococcus aureus; conditions: ATCC 33591, 18 h
Protocol: as §1, §2

[4] = system: K. pneumoniae ATCC 700603; type: cell-based, Klebsiella pneumoniae; conditions: ATCC 700603, 18 h
Protocol: as §1, §2

Row | MIC (P. aeruginosa ATCC 9027) | MIC [1] | MIC (C. glabrata ATCC 15126) | MIC (K. aerogenes ATCC 13048) | HC50 [2] | MIC (E. faecium ATCC 700221) | MIC (S. aureus ATCC 33591) | MIC [4] | Structure (SMILES) | IC50 [3]
1 | 256 µg/mL (≈ 346 µM) | 512 µg/mL (≈ 692 µM) | 512 µg/mL (≈ 692 µM) | 256 µg/mL (≈ 346 µM) | >512 µg/mL | 16 µg/mL (≈ 21.6 µM) | 32 µg/mL (≈ 43.2 µM) | >512 µg/mL | CCCCCCCCCCCCCC(=O)N[C@@H](CCCCN)C(=O)N[C@@H](CCCCN)C(=O)N[C@@H](CCCCN)C(=O)N[C@@H](CCCCN)C(N)=O [Peptide 4M, C14-KKKK-NH2] (Myristoyl-KKKK-NH2) | 252.20 ± 36.68 µg/mL (≈ 341 µM)
2 | >512 µg/mL | >512 µg/mL | >512 µg/mL | >512 µg/mL | >512 µg/mL | 128 µg/mL | >512 µg/mL | >512 µg/mL | CCCCCCCCCCCCCC(=O)N[C@@H](CCCC[N+](C)(C)C)C(=O)N[C@@H](CCCC[N+](C)(C)C)C(=O)N[C@@H](CCCC[N+](C)(C)C)C(=O)N[C@@H](CCCC[N+](C)(C)C)C(N)=O [Peptide 4Mq, C14-K(Me3)^+K(Me3)^+K(Me3)^+K(Me3)^+-NH2] (Myristoyl-[Lys(Me3)][Lys(Me3)][Lys(Me3)][Lys(Me3)]-NH2) | >512 µg/mL
3 | >512 µg/mL | >512 µg/mL | >512 µg/mL | 512 µg/mL | >512 µg/mL | 32 µg/mL | 512 µg/mL | >512 µg/mL | CCCCCCCCCCCCCCCC(=O)N[C@@H](CCCC[N+](C)(C)C)C(=O)N[C@@H](CCCC[N+](C)(C)C)C(=O)N[C@@H](CCCC[N+](C)(C)C)C(=O)N[C@@H](CCCC[N+](C)(C)C)C(N)=O [Peptide 4Pq, C16-K(Me3)^+K(Me3)^+K(Me3)^+K(Me3)^+-NH2] (Palmitoyl-[Lys(Me3)][Lys(Me3)][Lys(Me3)][Lys(Me3)]-NH2) | >512 µg/mL
4 | 512 µg/mL | 256 µg/mL | 512 µg/mL | 64 µg/mL | >512 µg/mL | 16 µg/mL | 64 µg/mL | 256 µg/mL | CCCCCCCCCCCCCCCCCC(=O)N[C@@H](CCCC[N+](C)(C)C)C(=O)N[C@@H](CCCC[N+](C)(C)C)C(=O)N[C@@H](CCCC[N+](C)(C)C)C(=O)N[C@@H](CCCC[N+](C)(C)C)C(N)=O [Peptide 4Sq, C18-K(Me3)^+K(Me3)^+K(Me3)^+K(Me3)^+-NH2] (Stearoyl-[Lys(Me3)][Lys(Me3)][Lys(Me3)][Lys(Me3)]-NH2) | >512 µg/mL

More lines, now with the values behind:

Row | Structure (SMILES) | MIC (P. aeruginosa ATCC 9027) | MIC [1] | MIC (C. glabrata ATCC 15126) | MIC (K. aerogenes ATCC 13048) | HC50 [2] | MIC (E. faecium ATCC 700221) | MIC (S. aureus ATCC 33591) | MIC [4] | IC50 [3]
5 | CCCCCCCCCCCCCC(=O)N[C@@H](CCCC[N+](C)(C)C)C(=O)N[C@@H](CCCC[N+](C)(C)C)C(N)=O [Peptide 2Mq, C14-K(Me3)^+K(Me3)^+-NH2] | >512 µg/mL | >512 µg/mL | 512 µg/mL | >512 µg/mL | >512 µg/mL | 128 µg/mL | 128 µg/mL | >512 µg/mL | 258.90 ± 35.07 µg/mL
6 | CCCCCCCCCCCCCCCC(=O)N[C@@H](CCCC[N+](C)(C)C)C(=O)N[C@@H](CCCC[N+](C)(C)C)C(N)=O [Peptide 2Pq, C16-K(Me3)^+K(Me3)^+-NH2] | 512 µg/mL | 128 µg/mL | 64 µg/mL | 512 µg/mL | 133.32 ± 6.27 µg/mL | 16 µg/mL | 16 µg/mL | 512 µg/mL | 99.62 ± 9.65 µg/mL
7 | CCCCCCCCCCCCCCCCCC(=O)N[C@@H](CCCC[N+](C)(C)C)C(=O)N[C@@H](CCCC[N+](C)(C)C)C(N)=O [Peptide 2Sq, C18-K(Me3)^+K(Me3)^+-NH2] | >512 µg/mL | 64 µg/mL | 16 µg/mL | 64 µg/mL | 22.42 ± 0.98 µg/mL | 16 µg/mL | 8 µg/mL | 128 µg/mL | 78.57 ± 5.49 µg/mL
8 | CCCCCCCCCCCCCC(=O)N[C@@H](CCCCN)C(=O)N[C@@H](CCCCN)C(=O)N[C@@H](CCCCN)C(N)=O [Peptide 3M, C14-KKK-NH2] | 128 µg/mL (≈ 209 µM) | 512 µg/mL (≈ 837 µM) | 512 µg/mL (≈ 837 µM) | 256 µg/mL (≈ 418 µM) | >512 µg/mL | 32 µg/mL (≈ 52.3 µM) | 64 µg/mL (≈ 105 µM) | >512 µg/mL | 237.60 ± 31.18 µg/mL (≈ 388 µM)
9 | CCCCCCCCCCCCCC(=O)N[C@@H](CCCC[N+](C)(C)C)C(=O)N[C@@H](CCCC[N+](C)(C)C)C(=O)N[C@@H](CCCC[N+](C)(C)C)C(N)=O [Peptide 3Mq, C14-K(Me3)^+K(Me3)^+K(Me3)^+-NH2] | >512 µg/mL | >512 µg/mL | >512 µg/mL | >512 µg/mL | >512 µg/mL | 256 µg/mL | >512 µg/mL | >512 µg/mL | >512 µg/mL
10 | CCCCCCCCCCCCCCCC(=O)N[C@@H](CCCC[N+](C)(C)C)C(=O)N[C@@H](CCCC[N+](C)(C)C)C(=O)N[C@@H](CCCC[N+](C)(C)C)C(N)=O [Peptide 3Pq, C16-K(Me3)^+K(Me3)^+K(Me3)^+-NH2] | >512 µg/mL | >512 µg/mL | >512 µg/mL | 512 µg/mL | >512 µg/mL | 32 µg/mL | 256 µg/mL | >512 µg/mL | >512 µg/mL
11 | CCCCCCCCCCCCCCCCCC(=O)N[C@@H](CCCC[N+](C)(C)C)C(=O)N[C@@H](CCCC[N+](C)(C)C)C(=O)N[C@@H](CCCC[N+](C)(C)C)C(N)=O [Peptide 3Sq, C18-K(Me3)^+K(Me3)^+K(Me3)^+-NH2] | 512 µg/mL | 128 µg/mL | 128 µg/mL | 64 µg/mL | 385.50 ± 71.51 µg/mL | 16 µg/mL | 64 µg/mL | 256 µg/mL | 474.64 ± 29.06 µg/mL
